Reference: PubChem BioAssay (NCI)
Values joined by “and” are separate entries in the source; they are usually repeats but may differ in a detail not shown here. Equal values may be shown once.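 In this assay, cells in 96-well plates receive the compound at five concentrations for 48 hours. Endpoints are linearly interpolated between the surrounding concentrations. Definition used: TGI = concentration required for complete inhibition of growth.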

What was measured:
Experiment in all cases: NCI anticancer screen, dose series, 48 h
CCRF-CEM leukemia = test system: CCRF-CEM leukemia
DMS 114 small cell lung = test system: DMS 114 small cell lung
EKVX NSCLC = test system: EKVX NSCLC
HCT-116 colon = test system: HCT-116 colon
HCT-15 colon = test system: HCT-15 colon
HOP-92 NSCLC = test system: HOP-92 NSCLC
K-562 leukemia = test system: K-562 leukemia
SF-268 CNS = test system: SF-268 CNS
SF-539 CNS = test system: SF-539 CNS
TK-10 renal = test system: TK-10 renal

CC(=O)NC1C(OCc2ccccc2)OC(CO)C(O)C1OC(C)C(=O)N[C@@H](C)C(=O)N[C@H](CCC(=O)OCCNc1c2ccccc2nc2cccc([N+](=O)[O-])c12)C(N)=O (stereo not given in full)
TGI (CCRF-CEM leukemia): > 0.1 µM and 0.0189 µM
TGI (DMS 114 small cell lung): 0.00839 µM
TGI (EKVX NSCLC): 0.00472 µM
TGI (HCT-116 colon): 0.00243 µM
TGI (HCT-15 colon): 0.00156 µM
TGI (HOP-92 NSCLC): 0.00616 µM
TGI (K-562 leukemia): > 0.1 µM
TGI (SF-268 CNS): 0.0343 µM
TGI (SF-539 CNS): 0.0161 µM
TGI (TK-10 renal): 0.0631 µM

CCN(CC)c1ccc(N=Nc2ccc([N+](=O)[O-])cc2OC(=O)/C=C/c2ccccc2)c(OC(=O)/C=C/c2ccccc2)c1
TGI (CCRF-CEM leukemia): > 100 µM
TGI (DMS 114 small cell lung): > 25.2 µM
TGI (EKVX NSCLC): > 100 µM
TGI (HCT-116 colon): > 100 µM
TGI (HCT-15 colon): > 100 µM
TGI (HOP-92 NSCLC): > 100 µM
TGI (K-562 leukemia): > 100 µM
TGI (SF-268 CNS): > 100 µM
TGI (SF-539 CNS): > 27.9 µM
TGI (TK-10 renal): > 100 µM

CC1(C)O[C@@H](CCl)C[C@H](C#N)O1
TGI (CCRF-CEM leukemia): > 100 µM
TGI (DMS 114 small cell lung): > 100 µM
TGI (EKVX NSCLC): > 100 µM
TGI (HCT-116 colon): > 100 µM
TGI (HCT-15 colon): > 100 µM
TGI (HOP-92 NSCLC): > 100 µM
TGI (K-562 leukemia): > 100 µM
TGI (SF-268 CNS): > 100 µM
TGI (SF-539 CNS): > 100 µM
TGI (TK-10 renal): > 100 µM

Cc1cccc(C(C)C)c1N1C(=O)C(=O)C(c2nc3ccccc3o2)C(=O)C1=O
TGI (CCRF-CEM leukemia): 63 µM
TGI (DMS 114 small cell lung): 75.8 µM
TGI (EKVX NSCLC): > 100 µM
TGI (HCT-116 colon): > 100 µM
TGI (HCT-15 colon): > 100 µM
TGI (HOP-92 NSCLC): > 100 µM
TGI (K-562 leukemia): > 100 µM
TGI (SF-268 CNS): > 100 µM
TGI (SF-539 CNS): > 100 µM
TGI (TK-10 renal): > 100 µM

O=[N+]([O-])c1ccc(Cl)c(C2CC(c3cccc4ccccc34)=Nc3ccccc3S2)c1 (stereo not given)
TGI (CCRF-CEM leukemia): > 64.7 µM
TGI (DMS 114 small cell lung): 84.5 µM
TGI (EKVX NSCLC): > 100 µM
TGI (HCT-116 colon): 38.7 µM
TGI (HCT-15 colon): > 100 µM
TGI (HOP-92 NSCLC): 49.8 µM
TGI (K-562 leukemia): > 69.6 µM
TGI (SF-268 CNS): > 92.1 µM
TGI (SF-539 CNS): 49.3 µM
TGI (TK-10 renal): > 100 µM

Cc1nnc2c3nnc(C)n3c3ccccc3n12
TGI (CCRF-CEM leukemia): > 100 µM
TGI (DMS 114 small cell lung): > 100 µM
TGI (EKVX NSCLC): > 100 µM
TGI (HCT-116 colon): > 100 µM
TGI (HCT-15 colon): > 100 µM
TGI (HOP-92 NSCLC): > 100 µM
TGI (K-562 leukemia): > 100 µM
TGI (SF-268 CNS): > 100 µM
TGI (SF-539 CNS): > 100 µM
TGI (TK-10 renal): > 100 µM

Cc1cc(-c2ccccc2)nc(Nc2nc3ccccc3o2)n1
TGI (CCRF-CEM leukemia): > 100 µM
TGI (DMS 114 small cell lung): > 100 µM
TGI (EKVX NSCLC): > 100 µM
TGI (HCT-116 colon): > 100 µM
TGI (HCT-15 colon): > 100 µM
TGI (HOP-92 NSCLC): > 100 µM
TGI (K-562 leukemia): > 100 µM
TGI (SF-268 CNS): > 100 µM
TGI (SF-539 CNS): > 100 µM
TGI (TK-10 renal): > 100 µM
